Source: publication PMC4147338, “Host defense peptides for treatment of colorectal carcinoma – a comparative in vitro and in vivo analysis” (Oncotarget, 2014)

Legend:
Type in all cases: cell-based, human
HROC24 cells [1] = experiment: Calcein-AM cell viability staining, 24h; details: HROC24, 24h, 0.25-12.5 μM
Experimental: (§1) Figure 4 HDP-mediated cytotoxicity towards tumor cells Quantitative analysis of direct cytotoxicity towards tumor cells following a 24h incubation period with increasing HDP concentrations. Viability was assessed using Calcein-AM staining. Remaining viable tumor cells were quantified in comparison to untreated controls, which were set to be =1. […] Values are given as the mean x-fold increase ± SD. *p<0.05 vs. NK11; **p<0.01 vs. NK11.
(§2) This assay is based on Calcein-acetoxymethylester (Calcein-AM; Invitrogen, Darmstadt, Germany) staining to detect viable cells within a culture. Tumor and normal (PBL) cells (1-2 × 10^4 cells/well in triplicates) were seeded in 96-well plates and incubated overnight. Thereafter, peptides were added in increasing concentrations (ranging from 0.25 μM – 12.5 μM). Untreated cells served as living cell control. Medium was removed after 1h or 24h, respectively. Calcein-AM ([…]) was added and incubated for 30 min (37°C, 5% CO2). Analysis was performed on a fluorescence multi-well plate reader (Tecan Infinite® M200, Crailsheim, Germany) at an excitation wavelength of 485 nm (emission 535 nm). For estimation of cell viability, the relative fluorescence intensities of Calcein-AM-stained non-treated cells (=live control) were set to be 1, and fluorescence intensities of samples were calculated. Data of at least three independent experiments each performed in […] are given.

HCT116 cells = experiment: Calcein-AM cell viability staining, 24h; details: HCT116, 24h, 0.25-12.5 μM
Experimental: as §1, §2

HROC18 cells = experiment: Apoptosis/necrosis assay, YO-PRO-1/PI flow cytometry; details: HROC18, 24h; for total killing: background cell death subtracted
Experimental: (§3) Figure 5 Apoptosis/necrosis assay and Western blot analysis (A, B) HROC18 and HROC24 cells were exposed to increasing HDP concentrations for a period of 24 hours. Tumor cells were stained with YO-PRO-1 for detecting early and late apoptotic tumor cells. Prior to flow cytometric analysis, PI was added to detect necrotic cells, as well. (A) Representative dot plots showing HDP-treated HROC24 cells at a concentration of 5 μM. Lower right quadrant: early apoptotic cells; upper right quadrant: late apoptotic cells; upper left quadrant: necrotic cells. (B) For cell death quantification, values of background cell death (=untreated controls) were subtracted from values of HDP-treated cells. Left panel: HROC24 cell; right panel: HROC18 cells. (C, E) Representative western blot results showing HDP-treated HROC24 cells (20 μg of total protein per lane). (D, F) Quantitative analysis of BAX and HSP90 expression in HDP-treated cells was done as described in material & methods. Expression levels of untreated cells were set to be =1 and x-fold increases of HDP-exposed cells were calculated. […] Values are given as mean ± SD.
(§4) Cell death was quantified by YO-PRO-1 (Invitrogen) and PI double staining. Selected tumor cells (HROC24 and HROC18, 1 × 10^4 cells/well) were seeded in 24-well plates and incubated overnight. Thereafter, peptides were added in increasing concentrations (ranging from 0.25 μM – 12.5 μM). Untreated cells served as living control. Following a 24-hour incubation period, supernatants were collected; cells were trypsinized and washed in PBS. Cells were stained with YO-PRO-1 (final concentration: 0.2 μM) for 20 min at room temperature. Prior to flow cytometric analysis, PI was added at a final concentration of 100 μg/ml. For cell death quantification, values of background cell death (=untreated controls) were subtracted from values of HDP-treated cells.

HROC24 cells [2] = experiment: as above; details: for Levels of viable HROC24 cells: 24h, higher concentrations
Experimental: as §3, §4

HROC113 cells = experiment: Calcein-AM cell viability staining, 24h; details: HROC113, 24h, 0.25-12.5 μM
Experimental: as §1, §2

HROC107 cells = experiment: Calcein-AM cell viability staining, 24h; details: HROC107, 24h, 0.25-12.5 μM
Experimental: as §1, §2

HROC60 cells = experiment: Calcein-AM cell viability staining, 24h; details: HROC60, 24h
Experimental: as §1, §2

CRC tumor cell lines = experiment: Calcein-AM cell viability staining, short-term exposure (1h); details: 0.25-12.5 μM, three separate experiments
Experimental: According to our classification, we included three PS^high (HCT116, HROC18, and HROC24), three PS^int (HROC40, HROC60, and HROC113), and two PS^low (HROC32 and HROC107) surface-exposed cell lines.
Figure 3 Short-term exposure of HDPs towards tumor cells (A) Representative pictures showing morphological changes in HROC24 cells upon HDP C7A-D21K exposure (25 μM). As a control, HROC24 cells were treated with NK11 (25 μM). (B) Quantitative analysis of direct cytotoxicity towards tumor cells. Tumor cells were treated for 1h with increasing HDP concentrations. Thereafter, viability was assessed using Calcein-AM staining. Remaining viable tumor cells were quantified in comparison to untreated controls, which were set to be =1. […] Values are given as the mean x-fold increase ± SD, *p<0.05 vs. NK11; **p<0.01 vs. NK11.
(§5) This assay is based on Calcein-acetoxymethylester (Calcein-AM; Invitrogen, Darmstadt, Germany) staining to detect viable cells within a culture. […] Analysis was performed on a fluorescence multi-well plate reader (Tecan Infinite® M200, Crailsheim, Germany) at an excitation wavelength of 485 nm (emission 535 nm). For estimation of cell viability, the relative fluorescence intensities of Calcein-AM-stained non-treated cells (=live control) were set to be 1, and fluorescence intensities of samples were calculated. […]

[3] = tested on: peripheral blood lymphocytes (PBL); experiment: Lymphotoxicity, Calcein-AM viability of PBL; details: PBL of six healthy donors, 24h, 0.25-12.5 μM
Experimental: Figure 6 Hemolysis and lymphotoxicity assays (A) Hemolytic activity of HDPs was determined by hemoglobin release from whole blood cells after 120 min incubation. Negative controls were left untreated whereas positive controls (=maximum lysis) were treated with 1% SDS. Hemolytic activity was quantified as described in the material and methods section. (B) PBLs were incubated in the presence of increasing HDP concentrations for a period of 24 hours. Viability was analyzed using Calcein-AM and quantified in comparison to untreated controls, which were set to be =1. […] Experiments were performed in triplicates. Values are given as the mean x-fold increase ± SD.
CRC cell lines HROC18, HROC24, HROC32, HROC40, HROC57, HROC60, HROC69, HROC80, HROC87, HROC107, and HROC113 were established in our lab from patients subsequent to surgical resection. […]
as §5

Row | Sequence | Lytic activity towards tumor cells (HROC24 cells [1]) | Lytic activity towards tumor cells (HCT116 cells) | total killing (HROC18 cells) | Levels of viable HROC24 cells (HROC24 cells [2]) [%] | Killing of tumor cells / viability (HROC113 cells) | Killing of tumor cells / viability (HROC107 cells) | lysis vs. control (HROC60 cells) [%] | Tumor killing, ranking (HROC18 cells) | Tumor killing compared with Melittin (HROC24 cells [2]; HROC24, 24h) | Direct cytotoxicity / tumor cell lysis after short-term exposure (CRC tumor cell lines) | Lymphocyte viability [3]
1 | KILRGVAKKIMRTFLRRISKDILTGKK [Peptide C7A, NK-2 derivative, Cys7 replaced with Ala] | as effective as the reference compound Mellitin | as effective as the reference compound Mellitin | up to 60% | 25 | – | – | – | – | – | – | –
2 | KILRGVAKKIMRTFLRRISKKILTGKK [Peptide C7A-D21K, C7A with Asp21 substituted by Lys] | as effective as the reference compound Mellitin | as effective as the reference compound Mellitin | 74% | 17 | most effective in killing these tumor cells | most effective in killing these tumor cells | > 40 | the most effective one and even slightly better than Melittin | as effective in tumor killing as Melittin | – | –
3 | KISKRILTGKK [NK11, non-toxic control peptide based on NK-2, reference compound] | – | – | – | – | – | – | – | – | – | lack of NK11-mediated tumor cell lysis | did not affect lymphocyte viability
